The values that follow are results of earlier work, collected in patent US20150182489A1, “GOLD (III) COMPOUNDS AND USE FOR TREATING CANCER” (King Abdulaziz City for Science and Technology, priority 2013, published 2015).

Like-named read-outs stand apart in the source and are kept apart here.

For the compound `N.N.[Cl][Pt][Cl]` [cisplatin, cis-diamminedichloroplatinum(II)], the renal histopathology result is “marked proximal tubular dilation and desquamation along with acute tubular necrosis” with rats (rats, 0.4 mg/kg intraperitoneally for 8 weeks (Ravindra et al)); “grade 4 tubular necrosis” in the data set on rats (rats, 15 mg/kg of body weight intraperitoneally (Hanigan et al)); “remarkable epithelial vacuolation, necrosis, and desquamation of cells with protein casts in renal tubules” with rats (single intraperitoneal dose of 7.5 mg/kg (Atasayara et al)). The hepatic histopathology entry in the data set with rats liver (10 mg/kg (Avci et al)) was “sinusoidal congestion, hydropic and vacuolar degeneration, extensive disorganization in hepatocytes, and significant fibrosis around central venules and expanded periportal areas”; in the data set on rats liver (single intraperitoneal 6.5 mg/kg dose (Kart et al)), “moderate to severe hydropic degeneration in centrilobular zones extending towards the portal region”.
On to `COc1cccc2c1C(=O)c1c(O)c3c(c(O)c1C2=O)C[C@@](O)(C(=O)CO)C[C@@H]3O[C@H]1C[C@H](N)[C@H](O)[C@H](C)O1` [doxorubicin], for which, in the data set on rats liver (rats liver (El-Sayyad et al)), the “hepatotoxicity relative to 5-FU treatment” value was “increased hepatoxicity in comparison to 5-FU treatment”.
